According to PMC6332393, “A Fungal α-Galactosidase from Tricholoma matsutake with Broad Substrate Specificity and Good Hydrolytic Activity on Raffinose Family Oligosaccharides” (Molecules, 2015):

Assays:
α-galactosidase TMG [1] = tested on: T1, α-galactosidase TMG; experiment: reducing sugar release ([…],5-dinitrosalicylic acid); Grafit fit; assay type: biochemical, Tricholoma matsutake; settings: 100 mM NaAc-HAc pH 4.6, 40 °C; 1-10 mM substrate; apparent Km; unit Mm [sic]
T1 construct: native, purified from fruiting bodies (Yunnan, China); monomer, 47 kDa by SDS-PAGE and gel filtration; inner peptides by LC-MS/MS GNVMVSLG, LLNMND, INVNDS; not cloned

α-galactosidase TMG [2] = tested on: T1, α-galactosidase TMG; experiment: p-nitrophenol release at […] nm; Grafit fit; assay type: biochemical, Tricholoma matsutake; settings: pH 4.6, 50 °C (standard assay); 1-10 mM substrate; apparent Km; unit Mm [sic]

Compound | Km (α-galactosidase TMG [1]) [mM] | Km (α-galactosidase TMG [2]) [mM]
OC[C@H]1O[C@H](OC[C@H]2O[C@H](OC[C@H]3O[C@H](O[C@]4(CO)O[C@H](CO)[C@@H](O)[C@@H]4O)[C@H](O)[C@@H](O)[C@@H]3O)[C@H](O)[C@@H](O)[C@H]2O)[C@H](O)[C@@H](O)[C@H]1O [stachyose] | 3.5 | –
OC[C@H]1O[C@H](OC[C@H]2O[C@H](O[C@]3(CO)O[C@H](CO)[C@@H](O)[C@@H]3O)[C@H](O)[C@@H](O)[C@@H]2O)[C@H](O)[C@@H](O)[C@H]1O [raffinose] | 3.7 | –
O=[N+]([O-])c1ccc(O[C@H]2O[C@H](CO)[C@H](O)[C@H](O)[C@H]2O)cc1 [pNPGal, 4-Nitrophenyl α-D-galactopyranoside] | – | 0.99
